Literature values, collected in patent publication US11866789B2, “Targeted therapies for cancer” (THE TRANSLATIONAL GENOMICS RESEARCH INSTITUTE, priority 2015, dated 2024).

Experiments:
[1] = tested on: advanced biliary tract cancer or hepatobiliary cancer; settings: 17 patients evaluated
[2] = tested on: Cell line models expressing NRG1 fusions; settings: See Reference 29

In the case of `CS(=O)(=O)CCNCc1ccc(-c2ccc3ncnc(Nc4ccc(OCc5cccc(F)c5)c(Cl)c4)c3c2)o1` [Lapatinib], the objective response [1] is given as “no objective response” and the “sensitivity of NRG1 fusion cell line models” value [2] is given as “increased sensitivity”.
